Results on 5 compounds are retold here after publication PMC10325066, “The FMRF-NH2 gated sodium channel of Biomphalaria glabrata: Localization and expression following infection by Schistosoma mansoni” (PLOS Neglected Tropical Diseases, 2023).

Broadly, the EC50 is the concentration needed to bring the measured effect to its halfway point.

Assay [1] relates to Biomphalaria glabrata FMRF-NH2 gated sodium channel (Bgl-FaNaC). As to the kind of experiment: Two-electrode voltage clamp of Bgl-FaNaC heterologously expressed in Xenopus oocytes. Format: cell-based. The following applies: peptide 1 mM (given for FLRF-NH2, pQFYRI-NH2, FIRF-NH2; not given for GDPFLRF-NH2); oocyte voltage clamp -60 mV. Here is the method: The cDNA encoding the Bgl-FaNaC sequence was codon-optimized for Xenopus laevis and synthesized by Integrated DNA Technologies (IDT, Coralville IA). The Flag-tag protein affinity sequence (DYKDDDDK; Sigma-Aldrich) was added to the N-terminal to enable confirmation of expression. The cDNA was subcloned into the Xenopus expression vector pGEM HE as described previously. The Bgl-FaNaC full-length RNA was transcribed in vitro, capped and polyadenylated using the T7 mScript Standard mRNA Production System (CellScript, Madison WI).
Oocytes were obtained from dissected ovaries of adult Xenopus laevis specimens (Xenopus Express, Brooksville FL). They were dispersed with type II collagenase and manually defolliculated. RNA injections were performed in pre-selected oocytes from stages V and VI. Oocytes were injected with 38.6 nL of Bgl-FaNaC encoding RNA at a concentration of 20 ng/uL using a Nanoliter 2000 microinjector (World Precision Instruments, Sarasota FL).
Injected oocytes were placed at the bottom of a plastic recording chamber (3 ml volume) lined with a nylon mesh and continuously perfused with ND96 (96 mM NaCl, 2 mM KCl, 1.8 mM CaCl2, 1 mM MgCl2, 5 mM HEPES, pH 7.6; see detailed methods in [38]). An OC725B oocyte clamp (Warner Instruments LLC., Hamden CT) was used to clamp the membrane potential at -60 mV with independent microelectrodes for recording (0.1 M potassium chloride) and passing current (3 M potassium chloride). Data were acquired on a Digidata 1200 interface with Clampex (V.6) and analyzed with AxoScope 10.7 (Axon Instruments, Union City CA). All experiments were carried out at room temperature (20–25°C).
Synthetic FMRF-NH2, FLRF-NH2, FIRF-NH2, pQFYRI-NH2, and GDPFLRF-NH2 peptides (>90% purity) were purchased from GL Biochem (Shanghai, China). All peptides were dissolved in ND96 in a stock of 1 mM. Peptide stocks were frozen at -20°C and serial dilutions were freshly prepared before each experiment. Peptides were applied manually using a pipettor (1 mL, upstream from the oocyte).
For orientation: Two-electrode voltage clamp is typically applied to oocytes expressing channels or transporters.

Assay [2] relates to Cornu aspersum FaNaC. Also noted: method as in PMID 7501021. The settings on record: cited from earlier work.
The test system of assay [3] is Planorbella FaNaC. Details: method as in PMID 10878095. The following applies: cited from earlier work.

Entries after “also recorded” stand apart in the source; their conditions may differ.

Consider “GDPFLRF-NH2 [Synthetic heptapeptide, product of the heptapeptide precursor Bgl-FaRP2]”, for which the “Current response to related peptide application” value (from here on “Current response”) in assay [1] is “No currents; also recorded: No response was elicited”. On the same count and under the same terms, the same measure for “pQFYRI-NH2 [Synthetic peptide encoded on the tetrapeptide precursor Bgl-FaRP1]”: “No currents”. As for `N=C(N)NC(=O)c1nc(Cl)c(N)nc1N` [amiloride], the “Effect of amiloride on FaNaC” value in assay [2] (FaNaC of Cornu aspersa) was “blocks”. For the same compound, in assay [3], the “Effect of amiloride on FaNaC responses to FMRF-NH2” value was “potentiates responses to FMRF-NH2”.

In the case of “FIRF-NH2 [Synthetic peptide encoded on the tetrapeptide precursor Bgl-FaRP1]”, the “Current response” value in assay [1] is reported as “No currents”.

For “FLRF-NH2 [Synthetic related peptide encoded on the Biomphalaria FMRF-NH2 precursor]”, the “Current response” value in assay [1] was “No currents; also recorded: No response was detected”. Further, the EC50 in assay [2] (C. aspersum FaNaC, read-out: EC50 for FaNaC activation) is 11 µM. Also, the “Response of FaNaC to peptide” value in assay [3] is “negligible”.
